Laboratory results from publication PMC11945486, “TAS1R2/TAS1R3 Single-Nucleotide Polymorphisms Affect Sweet Taste Receptor Activation by Sweeteners: The SWEET Project” (Nutrients, 2025).
Where two headings read alike, the source gives them in different places. No end group written: not given here.

Target: T1, human TAS1R2-WT/TAS1R3-T716M (Homo sapiens, UniProt Q7RTX0+Q8TE23, T716M)
T1 construct: expressed in transfected cells; host or cells: HEK293T stably expressing Gα16gust44
T1 sequence (Q8TE23 20-839): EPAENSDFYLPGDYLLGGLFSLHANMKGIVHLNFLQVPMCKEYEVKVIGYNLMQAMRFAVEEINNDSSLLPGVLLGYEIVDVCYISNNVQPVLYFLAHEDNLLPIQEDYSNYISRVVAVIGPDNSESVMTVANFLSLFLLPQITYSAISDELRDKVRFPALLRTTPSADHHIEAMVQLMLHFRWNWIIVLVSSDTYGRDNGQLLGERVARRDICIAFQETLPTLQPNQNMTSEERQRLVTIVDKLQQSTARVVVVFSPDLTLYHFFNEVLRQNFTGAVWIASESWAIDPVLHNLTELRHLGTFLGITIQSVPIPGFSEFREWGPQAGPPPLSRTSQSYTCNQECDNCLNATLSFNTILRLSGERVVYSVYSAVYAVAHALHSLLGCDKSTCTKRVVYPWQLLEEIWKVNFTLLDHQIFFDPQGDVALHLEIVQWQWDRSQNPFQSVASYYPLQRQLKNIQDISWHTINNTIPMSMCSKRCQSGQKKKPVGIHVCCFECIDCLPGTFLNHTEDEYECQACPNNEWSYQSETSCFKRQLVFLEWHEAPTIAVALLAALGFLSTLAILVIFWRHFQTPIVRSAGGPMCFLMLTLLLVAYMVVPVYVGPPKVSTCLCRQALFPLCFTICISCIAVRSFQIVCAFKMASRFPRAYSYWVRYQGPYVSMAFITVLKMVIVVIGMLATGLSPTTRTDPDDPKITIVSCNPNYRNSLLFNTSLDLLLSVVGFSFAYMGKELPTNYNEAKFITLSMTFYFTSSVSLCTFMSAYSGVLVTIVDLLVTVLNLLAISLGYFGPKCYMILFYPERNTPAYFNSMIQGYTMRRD
T1 sequence (Q7RTX0 21-852 T716M): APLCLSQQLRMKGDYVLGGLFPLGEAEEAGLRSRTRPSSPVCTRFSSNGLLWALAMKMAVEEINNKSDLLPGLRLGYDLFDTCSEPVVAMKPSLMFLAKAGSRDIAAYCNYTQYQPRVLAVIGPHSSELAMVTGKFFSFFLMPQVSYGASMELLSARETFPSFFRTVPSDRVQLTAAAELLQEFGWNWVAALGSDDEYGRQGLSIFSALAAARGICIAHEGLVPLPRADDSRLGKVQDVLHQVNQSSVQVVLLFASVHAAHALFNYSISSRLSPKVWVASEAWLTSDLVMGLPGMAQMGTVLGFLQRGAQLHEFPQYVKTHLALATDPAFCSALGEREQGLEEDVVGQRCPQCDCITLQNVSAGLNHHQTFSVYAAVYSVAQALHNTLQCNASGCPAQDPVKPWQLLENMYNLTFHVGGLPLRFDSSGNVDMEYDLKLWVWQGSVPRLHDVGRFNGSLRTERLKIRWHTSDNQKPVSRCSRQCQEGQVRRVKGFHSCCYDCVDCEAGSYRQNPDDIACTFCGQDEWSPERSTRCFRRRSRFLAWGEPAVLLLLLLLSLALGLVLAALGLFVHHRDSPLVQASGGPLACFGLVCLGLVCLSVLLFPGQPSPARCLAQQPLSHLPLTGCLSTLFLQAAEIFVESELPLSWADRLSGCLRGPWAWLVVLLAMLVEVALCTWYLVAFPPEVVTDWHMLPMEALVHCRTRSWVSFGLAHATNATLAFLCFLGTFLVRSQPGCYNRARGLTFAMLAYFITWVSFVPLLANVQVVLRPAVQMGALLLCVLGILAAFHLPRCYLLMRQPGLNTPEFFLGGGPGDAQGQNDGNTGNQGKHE
Assay: Calcium mobilisation assay, TAS1R2-WT with TAS1R3 variant T716M
Assay type: cell-based
Conditions: for Max ΔF/F0: maximal signal amplitude
Text: The coding sequences for TAS1R2 and TAS1R3 were commercially synthesised, and the human codon was optimised for expression in human cells. The coding sequences of human TAS1R2 and TAS1R3 were subcloned and inserted into the mammalian expression vectors pcDNA6/myc-HisA and pcDNA4/myc-HisA (Invitrogen; Thermo Fisher Scientific; Illkirch, France) between the EcoRI and NotI restriction sites, generating the plasmids pcDNA6-TAS1R2 and pcDNA4-TAS1R3, respectively. To increase protein expression in mammalian cells, an upstream start codon was used, which was a sequence called MAX, corresponding to the QBI SP163 element also described in pcDNA4-HisMax (Invitrogen; Thermo Fisher Scientific; Illkirch, France). To measure the expression level of the receptor by immunohistochemistry, we used the FLAG sequence ([…]) in the C-terminal position, which encodes the FLAG tag epitope. SNP variants of TAS1R2 and TAS1R3 were constructed based on […], respectively, using site-directed mutagenesis (Genewiz; Leipzig, Germany).
The HEK293T cells were kindly provided by Jay P. Slack (Givaudan Flavors Corporation; Cincinnati, OH, USA). HEK293T cells stably transfected with Gα16gust44 [43, 67] were seeded in poly-D-lysine-coated clear-bottom black 96-well plates (0.35 × 10^5 cells/well) in high-glucose DMEM supplemented with 2 mM GlutaMAX, 10% dialysed foetal bovine serum with penicillin/streptomycin and G418 (400 μg/mL) at 37 °C and 6.3% CO2 in a humidified atmosphere as previously reported. […] As a negative control, HEK293T cells were mock-transfected with the empty expression vector. After a further 24 h of incubation, the HEK293T cells were washed with C1 buffer (130 mM NaCl, 5 mM KCl, 10 mM HEPES pH 7.4 and 2 mM CaCl2). The 96-well plates containing the cells were then stimulated with sweet-tasting compounds. […] Different concentration ranges were tested depending on the sweet compound injected. The Ca^2+ changes were expressed as fractional changes in fluorescent light intensity: ΔF/F = (F − F0)/F0, where F was the fluorescent light intensity at each point, and F0 was the value of emitted fluorescent light prior to stimulus application. To calculate dose–response relationships, the changes in fluorescence upon stimulus application were averaged, mock-subtracted and baseline-corrected. The dose–response data obtained were adjusted using a 4-parameter logistic equation. The half-maximal effective concentrations (EC50 values) and maximal signal amplitudes were calculated using SigmaPlot software (version 15.0) (Systat Software; San Jose, CA, USA).
For in vitro calcium mobilisation assay performed on hTAS1R2-SNPs, hTAS1R3-SNPs and mTAS1R3-I60T, 6 to 7 concentrations were tested for each sweet compound, plus buffer alone. All concentration–receptor combinations were measured in duplicate, and each experiment was repeated at least 4 times (8 wells/concentration). Results were expressed for each concentration as ΔF/F mean ± SEM and represented as dose–response curves.

R1 = Variant EC50/WT EC50 | Max ΔF/F0 | EC50 (read-out: EC50) | EC50 (brazzein) | Molecule
1.2 | 0.30 ± 0.01 | 739 ± 72 µM | – | CC1=CC(=O)NS(=O)(=O)O1 [Acesulfame K, acesulfame K]
1.1 | 0.84 ± 0.09 | 55.4 ± 18.4 µM | – | COc1ccc(CCC(=O)c2c(O)cc(O[C@@H]3O[C@H](CO)[C@@H](O)[C@H](O)[C@H]3O[C@@H]3O[C@@H](C)[C@H](O)[C@@H](O)[C@H]3O)cc2O)cc1O [NHDC, neohesperidin dihydrochalcone]
1.1 | 0.54 ± 0.01 | 1.3 ± 0.06 µM | – | COC(=O)[C@H](Cc1ccccc1)NC(=O)[C@H](CC(=O)O)NCCC(C)(C)C [Neotame]
1.6 | 1.73 ± 0.33 | 21.6 ± 11.4 µM | – | C=C(C)[C@@H]1CC=C(/C=N/O)CC1 [Perillartine, perillartine]
0.8 | 1.10 ± 0.06 | 30.7 ± 4 µM | – | C=C1C[C@@]23CC[C@H]4[C@@](C)(CCC[C@@]4(C)C(=O)O[C@@H]4O[C@H](CO)[C@@H](O)[C@H](O[C@@H]5O[C@H](CO)[C@@H](O)[C@H](O)[C@H]5O)[C@H]4O[C@@H]4O[C@H](CO)[C@@H](O)[C@H](O)[C@H]4O)[C@@H]2CC[C@]1(O[C@@H]1O[C@H](CO)[C@@H](O)[C@H](O[C@@H]2O[C@H](CO)[C@@H](O)[C@H](O)[C@H]2O)[C@H]1O[C@@H]1O[C@H](CO)[C@@H](O)[C@H](O)[C@H]1O)C3 [Rebaudioside M, rebaudioside M]
1.5 | 0.47 ± 0.02 | 161 ± 14 µM | – | OC[C@H]1O[C@H](O[C@]2(CCl)O[C@H](CCl)[C@@H](O)[C@@H]2O)[C@H](O)[C@@H](O)[C@H]1Cl [Sucralose]
1.0 | 0.94 ± 0.04 | – | 112.6 ± 13.6 µg/mL | brazzein (QDKCKKVYENYPVSKCQLANQCNYDCKLDKHARSGECFYDEKRNLQCICDYCEY; ends and bridges not checked; cysteine pairing not given here; UniProt P56552 1-54, looked up) [sweet-tasting protein obtained by recombinant production using the yeast Pichia pastoris]
1.0 | 0.76 ± 0.04 | 10 ± 0.5 µM | – | thaumatin

Molecule | R1 = Variant EC50/WT EC50 | Max ΔF/F0 | EC50 (read-out: EC50) | EC50 (brazzein)
O=S(=O)(O)NC1CCCCC1 [Cyclamate, cyclamate] | – | – | 1860 ± 45 µM | –
C[C@H](CC[C@@H](O[C@@H]1O[C@H](CO[C@@H]2O[C@H](CO)[C@@H](O)[C@H](O)[C@H]2O)[C@@H](O)[C@H](O)[C@H]1O[C@@H]1O[C@H](CO)[C@@H](O)[C@H](O)[C@H]1O)C(C)(C)O)[C@H]1CC[C@@]2(C)[C@@H]3CC=C4[C@@H](CC[C@H](O[C@@H]5O[C@H](CO[C@@H]6O[C@H](CO)[C@@H](O)[C@H](O)[C@H]6O)[C@@H](O)[C@H](O)[C@H]5O)C4(C)C)[C@]3(C)[C@H](O)C[C@]12C [Mogroside V, mogroside V] | 1.2 | 1.01 ± 0.01 | 36.4 ± 1 µM | –
